According to US20050229276A1, “Method of producing cyclamen root tuber and method of proliferating cyclamen using the same” (Tokyo University of Agricultural, priority 2002, published 2005):

Test system: cyclamen (cultivar: Dressy Scarlet) seedling
Assay: Growth of root tubers at cut root ends of seedlings in solid media
Assay type: in vivo
Procedure: A cyclamen (cultivar: Dressy Scarlet) seed was immersed in an ethyl alcohol aqueous solution having an ethyl alcohol concentration of 70 wt % for 10 seconds and in a sodium hypochlorite solution having an effective chlorine concentration of 1 wt % for 10 minutes to sterilize the surface of the seed. Thereafter, this seed was washed in sterilized water 3 times to remove the sodium hypochlorite from the surface of the seed. This was sown in an MS solid medium containing 30 g/l of sucrose and 6 g/l of agar under a germ-free condition and cultured at a temperature of 20° C. under weak light for 30 days to be germinated and rooted.
The end portions of the roots of the above germinated and rooted cyclamen seedling were cut off with a scalpel, and the seedling was planted in the following solid media. As the media, a large number of experimental plots were prepared by adding NAA and BA as phytohormones to the ⅓ MS medium in concentrations shown in Tables 1 to 3 and further adding 30 to 90 g/l of sucrose. 6 g/l of agar was added to all of the media which were then sterilized in an autoclave to prepare media having a pH of 7.0. 10 ml of each of the solid media was placed in a 50 ml culture test tube. The stationary culture of the seedling planted in each of the media was carried out at 20° C. under weak light for a certain number of days to grow root tubers at the end portions of its roots.

[1] = sucrose 30 g/l, BA 0.1 mg/l, NAA 0.00 mg/l, 30-th day
[2] = sucrose 30 g/l, BA 0.1 mg/l, NAA 0.01 mg/l, 30-th day
[3] = sucrose 30 g/l, BA 0.1 mg/l, NAA 0.05 mg/l, 30-th day
[4] = sucrose 30 g/l, BA 1.0 mg/l, NAA 0.00 mg/l, 30-th day
[5] = sucrose 30 g/l, BA 1.0 mg/l, NAA 0.01 mg/l, 30-th day
[6] = sucrose 30 g/l, BA 1.0 mg/l, NAA 0.05 mg/l, 30-th day
[7] = sucrose 30 g/l, BA 10.0 mg/l, NAA 0.00 mg/l, 30-th day
[8] = sucrose 30 g/l, BA 10.0 mg/l, NAA 0.01 mg/l, 30-th day
[9] = sucrose 30 g/l, BA 10.0 mg/l, NAA 0.05 mg/l, 30-th day
[10] = sucrose 50 g/l, BA 0.1 mg/l, NAA 0.00 mg/l, 30-th day
[11] = sucrose 50 g/l, BA 0.1 mg/l, NAA 0.01 mg/l, 30-th day
[12] = sucrose 50 g/l, BA 0.1 mg/l, NAA 0.05 mg/l, 30-th day
[13] = sucrose 50 g/l, BA 1.0 mg/l, NAA 0.00 mg/l, 30-th day
[14] = sucrose 50 g/l, BA 1.0 mg/l, NAA 0.01 mg/l, 30-th day
[15] = sucrose 50 g/l, BA 1.0 mg/l, NAA 0.05 mg/l, 30-th day
[16] = sucrose 50 g/l, BA 10.0 mg/l, NAA 0.00 mg/l, 30-th day
[17] = sucrose 50 g/l, BA 10.0 mg/l, NAA 0.01 mg/l, 30-th day

Question: Which results are given for `c1ccc(CNc2ncnc3[nH]cnc23)cc1` [BA, benzylaminopurine]?
Answer: Number of grown root tubers (BA 0.0 mg/l, sucrose 30 g/l, NAA 0.05 mg/l, 23 roots cut off, 30-th day): 23; Enlarging ratio (diameter of root tuber vs root at start = 1) (BA 0.0 mg/l, sucrose 30 g/l, NAA 0.05 mg/l, 30-th day): 8.4; Number of grown root tubers (BA 0.1 mg/l, sucrose 30 g/l, NAA 0.05 mg/l, 17 roots cut off, 30-th day): 17; Enlarging ratio (diameter of root tuber vs root at start = 1) (BA 0.1 mg/l, sucrose 30 g/l, NAA 0.05 mg/l, 30-th day): 2.3; Number of grown root tubers (BA 0.1 mg/l, sucrose 50 g/l, NAA 0.05 mg/l, 17 roots cut off, 30-th day): 16; Enlarging ratio (diameter of root tuber vs root at start = 1) (BA 0.1 mg/l, sucrose 50 g/l, NAA 0.05 mg/l, 30-th day): 3.2; Number of grown root tubers (BA 0.1 mg/l, sucrose 70 g/l, NAA 0.05 mg/l, 21 roots cut off, 30-th day): 21; Enlarging ratio (diameter of root tuber vs root at start = 1) (BA 0.1 mg/l, sucrose 70 g/l, NAA 0.05 mg/l, 30-th day): 3.8; Number of grown root tubers (BA 0.1 mg/l, sucrose 90 g/l, NAA 0.05 mg/l, 18 roots cut off, 30-th day): 18; Enlarging ratio (diameter of root tuber vs root at start = 1) (BA 0.1 mg/l, sucrose 90 g/l, NAA 0.05 mg/l, 30-th day): 5.0; Number of grown root tubers (BA 0.5 mg/l, sucrose 30 g/l, NAA 0.05 mg/l, 20 roots cut off, 30-th day): 20; Enlarging ratio (diameter of root tuber vs root at start = 1) (BA 0.5 mg/l, sucrose 30 g/l, NAA 0.05 mg/l, 30-th day): 6.6; Number of grown root tubers (BA 0.5 mg/l, sucrose 50 g/l, NAA 0.05 mg/l, 21 roots cut off, 30-th day): 20; Enlarging ratio (diameter of root tuber vs root at start = 1) (BA 0.5 mg/l, sucrose 50 g/l, NAA 0.05 mg/l, 30-th day): 9.5; Number of grown root tubers (BA 0.5 mg/l, sucrose 70 g/l, NAA 0.05 mg/l, 25 roots cut off, 30-th day): 25; Enlarging ratio (diameter of root tuber vs root at start = 1) (BA 0.5 mg/l, sucrose 70 g/l, NAA 0.05 mg/l, 30-th day): 7.2; Number of grown root tubers (BA 0.5 mg/l, sucrose 90 g/l, NAA 0.05 mg/l, 16 roots cut off, 30-th day): 16; Enlarging ratio (diameter of root tuber vs root at start = 1) (BA 0.5 mg/l, sucrose 90 g/l, NAA 0.05 mg/l, 30-th day): 6.0; Number of grown root tubers (BA 1.0 mg/l, sucrose 50 g/l, NAA 0.05 mg/l, 24 roots cut off, 30-th day): 23; Enlarging ratio (diameter of root tuber vs root at start = 1) (BA 1.0 mg/l, sucrose 50 g/l, NAA 0.05 mg/l, 30-th day): 6.3; Number of grown root tubers (BA 1.0 mg/l, sucrose 70 g/l, NAA 0.05 mg/l, 17 roots cut off, 30-th day): 17; Enlarging ratio (diameter of root tuber vs root at start = 1) (BA 1.0 mg/l, sucrose 70 g/l, NAA 0.05 mg/l, 30-th day): 5.4; Number of grown root tubers (BA 1.0 mg/l, sucrose 90 g/l, NAA 0.05 mg/l, 4 roots cut off, 30-th day): 3; Enlarging ratio (diameter of root tuber vs root at start = 1) (BA 1.0 mg/l, sucrose 90 g/l, NAA 0.05 mg/l, 30-th day): 3.8; Number of large root tubers (diameter of 1 mm or more) [1]: 4; Total number of root tubers [1]: 18; Number of large root tubers (diameter of 1 mm or more) [2]: 5; Total number of root tubers [2]: 15; Number of large root tubers (diameter of 1 mm or more) [3]: 5; Total number of root tubers [3]: 15; Number of large root tubers (diameter of 1 mm or more) [4]: 2; Total number of root tubers [4]: 6; Number of large root tubers (diameter of 1 mm or more) [5]: 3; Total number of root tubers [5]: 5; Number of large root tubers (diameter of 1 mm or more) [6]: 6; Total number of root tubers [6]: 7; Number of large root tubers (diameter of 1 mm or more) [7]: 6; Total number of root tubers [7]: 11; Number of large root tubers (diameter of 1 mm or more) [8]: 5; Total number of root tubers [8]: 5; Number of large root tubers (diameter of 1 mm or more) [9]: 4; Total number of root tubers [9]: 8; Number of large root tubers (diameter of 1 mm or more) [10]: 1; Total number of root tubers [10]: 2; Number of large root tubers (diameter of 1 mm or more) [11]: 0; Total number of root tubers [11]: 1; Average number of root tubers (per a seedling) [12]: 2.8; Number of large root tubers (diameter of 1 mm or more) [12]: 7; Total number of root tubers [12]: 14; Average number of root tubers (per a seedling) (sucrose 50 g/l, BA 0.1 mg/l, NAA 0.05 mg/l, 50-th day): 2.8; Number of large root tubers (diameter of 1 mm or more) [13]: 11; Total number of root tubers [13]: 16; Number of large root tubers (diameter of 1 mm or more) [14]: 11; Total number of root tubers [14]: 16; Average number of root tubers (per a seedling) [15]: 4.8; Number of large root tubers (diameter of 1 mm or more) [15]: 4; Total number of root tubers [15]: 9; Average number of root tubers (per a seedling) (sucrose 50 g/l, BA 1.0 mg/l, NAA 0.05 mg/l, 50-th day): 4.8; Average number of root tubers (per a seedling) (sucrose 50 g/l, BA 2.0 mg/l, NAA 0.05 mg/l, 30-th day): 0.6; Average number of root tubers (per a seedling) (sucrose 50 g/l, BA 2.0 mg/l, NAA 0.05 mg/l, 50-th day): 0.6; Average number of root tubers (per a seedling) (sucrose 50 g/l, BA 5.0 mg/l, NAA 0.05 mg/l, 30-th day): 1.8; Average number of root tubers (per a seedling) (sucrose 50 g/l, BA 5.0 mg/l, NAA 0.05 mg/l, 50-th day): 1.8; Number of large root tubers (diameter of 1 mm or more) [16]: 6; Total number of root tubers [16]: 7; Number of large root tubers (diameter of 1 mm or more) [17]: 3; Total number of root tubers [17]: 10
